# Measured values taken from patent US11970474B2, “Substituted benzodiazoles and use thereof in therapy” (THOMAS HELLEDAYS STIFTELSE FÖR MEDICINSK FORSKNING, priority 2018, dated 2024).
# What was measured:
# [1] = molecular target: OGG1 (Homo sapiens (Human), UniProt O15527); assay: In vitro OGG1 activity assay; format: biochemical; conditions: 800 pM OGG1 enzyme, 2 nM human APEX1, 10 nM 8-oxoA:C substrate
# Outline: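 Read-out is fluorescein fluorescence, with compounds in DMSO added first, then enzyme and substrate. OGG1 excises its substrate base from a quenched fluorophore-labelled duplex, and surplus APEX1 cuts the resulting apurinic site. The duplex then melts and fluorescence rises in proportion to glycosylase activity.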
# [2] = system: MLE12 cells; assay: Cell viability assay in MLE12 cells (resazurin); format: cell-based, mouse; conditions: Mus musculus, MLE12, 24 h, TNF-α 20 ng/ml, resazurin added after 24 hours culture
# Outline: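 MLE12 cells (7500 cells/well) were seeded onto 11-point duplicate compound dose-responses, with TNF-α (final 20 ng/ml) added after 1 hour at 37° C. After 24 hours, resazurin was added for 6 hours and resorufin fluorescence read (ex544 nm/em595 nm). EC50 values were calculated by curve fitting.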
# [3] = system: CCL2; assay: Mouse CCL2 assay in MLE12 cells; format: cell-based; conditions: Mus musculus, MLE12, 30 h, MLE12 cells; TNF-α 20 ng/ml; supernatant after 30 hours; HTRF; read-out: CCL2 (EC50)
# Outline: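 CCL2 in supernatants was quantified by two-antibody HTRF FRET, read at 620 and 665 nm after overnight RT incubation, with IC50 derived from delta ratios. Cells were SV40-transformed mouse MLE12, treated with duplicate 6-point compound series for 1 h before 30 h TNF-α (20 ng/ml final) stimulation.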
# Sequence of OGG1 (O15527 whole entry): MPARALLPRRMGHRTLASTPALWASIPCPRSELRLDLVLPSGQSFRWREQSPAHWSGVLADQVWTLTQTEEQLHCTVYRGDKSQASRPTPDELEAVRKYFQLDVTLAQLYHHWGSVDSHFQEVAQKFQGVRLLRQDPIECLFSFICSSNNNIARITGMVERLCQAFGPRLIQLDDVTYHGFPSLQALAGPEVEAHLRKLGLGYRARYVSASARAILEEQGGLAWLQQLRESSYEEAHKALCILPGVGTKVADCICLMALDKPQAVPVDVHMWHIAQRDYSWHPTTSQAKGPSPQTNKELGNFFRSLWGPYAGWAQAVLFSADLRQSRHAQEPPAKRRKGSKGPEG
IC50 [1],EC50 [3],Compound,IC50 [2]
0.00583 µM,42.7 µM,"COC(=O)c1cccc2c1[nH]c(=O)n2[C@H]1CC[C@@H](C(=O)Nc2ccc(C)c(OC)c2)CC1 [Example 258, Methyl 2-oxo-1-[cis-4-[(3-methoxy-4-methylphenyl)carbamoyl]cyclohexyl]-2,3-dihydro-1H-1,3-benzodiazole-4-carboxylate]",11.3 µM
0.348 µM,> 100 µM,"COc1cc(NC(=O)[C@H]2CC[C@@H](n3c(=O)[nH]c4c(C(=O)N5CCOCC5)cccc43)CC2)ccc1C [Example 262, Cis-N-(3-methoxy-4-methylphenyl)-4-[4-(morpholine-4-carbonyl)-2-oxo-2,3-dihydro-1H-1,3-benzodiazol-1-yl]cyclohexane-1-carboxamide]",19.7 µM
0.00271 µM,> 33 µM,"COc1cc(NC(=O)[C@H]2CC[C@@H](n3c(=O)[nH]c4c(C(=O)NCCO)cccc43)CC2)ccc1C [Example 263, N-(2-Hydroxyethyl)-2-oxo-1-[cis-4-[(3-methoxy-4-methylphenyl)carbamoyl]cyclohexyl]-2,3-dihydro-1H-1,3-benzodiazole-4-carboxamide]",27.2 µM
0.153 µM,> 100 µM,"COc1cc(NC(=O)[C@H]2CC[C@@H](n3c(=O)[nH]c4c(C(=O)N5CCN(C)CC5)cccc43)CC2)ccc1C [Example 268, Cis-N-(3-methoxy-4-methylphenyl)-4-[4-(4-methylpiperazine-1-carbonyl)-2-oxo-2,3-dihydro-1H-1,3-benzodiazol-1-yl]cyclohexane-1-carboxamide]",13.4 µM
0.00411 µM,35.7 µM,"COc1cc(NC(=O)[C@H]2CC[C@@H](n3c(=O)[nH]c4c(C(=O)NCCN5CCOCC5)cccc43)CC2)ccc1C [Example 272, N-[2-(Morpholin-4-yl)ethyl]-2-oxo-1-[cis-4-[(3-methoxy-4-methylphenyl)carbamoyl]cyclohexyl]-2,3-dihydro-1H-1,3-benzodiazole-4-carboxamide]",27.1 µM
0.0175 µM,32.6 µM,"COc1cc(NC(=O)[C@H]2CC[C@@H](n3c(=O)[nH]c4c(C(=O)NCC5CCCO5)cccc43)CC2)ccc1C (stereo partly drawn) [Example 273, 2-Oxo-N-[(oxolan-2-yl)methyl]-1-[cis-4-[(3-methoxy-4-methylphenyl)carbamoyl]cyclohexyl]-2,3-dihydro-1H-1,3-benzodiazole-4-carboxamide]",19.2 µM
0.0482 µM,28.6 µM,"COc1cc(NC(=O)[C@H]2CC[C@@H](n3c(=O)[nH]c4c(C(=O)N(C)C5CCN(C)C5)cccc43)CC2)ccc1C (stereo partly drawn) [Example 277, N-Methyl-N-(1-methylpyrrolidin-3-yl)-2-oxo-1-[cis-4-[(3-methoxy-4-methylphenyl)carbamoyl]cyclohexyl]-2,3-dihydro-1H-1,3-benzodiazole-4-carboxamide]",15 µM

# More lines, now with the values behind:
Compound,IC50 [1],EC50 [3],IC50 [2]
"COc1cc(NC(=O)[C@H]2CC[C@@H](n3c(=O)[nH]c4cc(C#N)ccc43)CC2)ccc1C [Example 238, Cis-4-(5-cyano-2-oxo-2,3-dihydro-1H-1,3-benzodiazol-1-yl)-N-(3-methoxy-4-methylphenyl)cyclohexane-1-carboxamide]",0.0409 µM,27.1 µM,9.18 µM
"COc1cc(NC(=O)[C@H]2CC[C@@H](n3c(=O)[nH]c4c(N5CCNCC5)cccc43)CC2)ccc1C [Example 240, Cis-N-(3-methoxy-4-methylphenyl)-4-[2-oxo-4-(piperazin-1-yl)-2,3-dihydro-1H-1,3-benzodiazol-1-yl]cyclohexane-1-carboxamide]",0.0153 µM,21.5 µM,16.1 µM
"COc1cc(NC(=O)[C@H]2CC[C@@H](n3c(=O)[nH]c4c(N(C)Cc5ccccc5)cccc43)CC2)ccc1C [Example 243, Cis-4-{4-[benzyl(methyl)amino]-2-oxo-2,3-dihydro-1H-1,3-benzodiazol-1-yl}-N-(3-methoxy-4-methylphenyl)cyclohexane-1-carboxamide]",1.47 µM,14.7 µM,5.74 µM
"CNc1cccc2c1[nH]c(=O)n2[C@H]1CC[C@@H](C(=O)Nc2ccc(C)c(OC)c2)CC1 [Example 244, Cis-N-(3-methoxy-4-methylphenyl)-4-[4-(methylamino)-2-oxo-2,3-dihydro-1H-1,3-benzodiazol-1-yl]cyclohexane-1-carboxamide]",0.0607 µM,37.3 µM,13.7 µM
"COCCOc1cccc2c1[nH]c(=O)n2[C@H]1CC[C@@H](C(=O)Nc2ccc(C)c(OC)c2)CC1 [Example 245, Cis-N-(3-methoxy-4-methylphenyl)-4-[4-(2-methoxyethoxy)-2-oxo-2,3-dihydro-1H-1,3-benzodiazol-1-yl]cyclohexane-1-carboxamide]",2.76 µM,> 33 µM,12.5 µM
"COCC(=O)Nc1cccc2c1[nH]c(=O)n2[C@H]1CC[C@@H](C(=O)Nc2ccc(C)c(OC)c2)CC1 [Example 250, Cis-N-(3-methoxy-4-methylphenyl)-4-[4-(2-methoxyacetamido)-2-oxo-2,3-dihydro-1H-1,3-benzodiazol-1-yl]cyclohexane-1-carboxamide]",0.0235 µM,39.9 µM,26 µM
"Cn1c(NC(=O)[C@H]2CC[C@@H](n3c(=O)[nH]c4c(Br)cccc43)CC2)nc2ccccc21 [Example 257, Cis-4-(4-bromo-2-oxo-2,3-dihydro-1H-1,3-benzodiazol-1-yl)-N-(1-methyl-1H-1,3-benzodiazol-2-yl)cyclohexane-1-carboxamide]",0.0269 µM,34.3 µM,19.9 µM
"COc1cc(NC(=O)[C@H]2CC[C@@H](n3c(=O)[nH]c4c(C(=O)N5CC[C@@H](N(C)C)C5)cccc43)CC2)ccc1C [Example 267, Cis-4-{4-[(3R)-3-(dimethylamino)pyrrolidine-1-carbonyl]-2-oxo-2,3-dihydro-1H-1,3-benzodiazol-1-yl}-N-(3-methoxy-4-methylphenyl)cyclohexane-1-carboxamide]",0.0824 µM,34.1 µM,17.9 µM
"COc1cc(NC(=O)[C@H]2CC[C@@H](n3c(=O)[nH]c4c(C(=O)NCc5ncc[nH]5)cccc43)CC2)ccc1C [Example 270, N-[(1H-Imidazol-2-yl)methyl]-2-oxo-1-[cis-4-[(3-methoxy-4-methylphenyl)carbamoyl]cyclohexyl]-2,3-dihydro-1H-1,3-benzodiazole-4-carboxamide]",0.00039 µM,32.9 µM,16.8 µM
"COc1cc(NC(=O)[C@H]2CC[C@@H](n3c(=O)[nH]c4c(C(=O)N5CCC[C@H]5CN5CCCC5)cccc43)CC2)ccc1C [Example 271, Cis-N-(3-methoxy-4-methylphenyl)-4-{2-oxo-4-[(2S)-2-[(pyrrolidin-1-yl)methyl]pyrrolidine-1-carbonyl]-2,3-dihydro-1H-1,3-benzodiazol-1-yl}cyclohexane-1-carboxamide]",0.056 µM,9.45 µM,4.65 µM
"COc1cc(NC(=O)[C@H]2CC[C@@H](n3c(=O)[nH]c4c(C(=O)N5CCNC(C(F)(F)F)C5)cccc43)CC2)ccc1C (stereo partly drawn) [Example 274, Cis-N-(3-methoxy-4-methylphenyl)-4-{2-oxo-4-[3-(trifluoromethyl)piperazine-1-carbonyl]-2,3-dihydro-1H-1,3-benzodiazol-1-yl}cyclohexane-1-carboxamide]",0.0921 µM,39 µM,18.1 µM
"COc1cc(NC(=O)[C@H]2CC[C@@H](n3c(=O)[nH]c4c(C(=O)NCc5ncccn5)cccc43)CC2)ccc1C [Example 276, 2-Oxo-N-[(pyrimidin-2-yl)methyl]-1-[cis-4-[(3-methoxy-4-methylphenyl)carbamoyl]cyclohexyl]-2,3-dihydro-1H-1,3-benzodiazole-4-carboxamide]",0.0029 µM,54 µM,16.9 µM
"COc1cc(NC(=O)[C@H]2CC[C@@H](n3c(=O)[nH]c4c(NCCN(C)C)cccc43)CC2)ccc1C [Example 280, Cis-4-(4-{[2-(dimethylamino)ethyl]amino}-2-oxo-2,3-dihydro-1H-1,3-benzodiazol-1-yl)-N-(3-methoxy-4-methylphenyl)cyclohexane-1-carboxamide]",0.0275 µM,24.7 µM,16.6 µM
"COc1cc(NC(=O)[C@H]2CC[C@@H](n3c(=O)[nH]c4c(N5CCC(NC(=O)OC(C)(C)C)C5)cccc43)CC2)ccc1C (stereo partly drawn) [Example 281, tert-Butyl N-(1-{2-oxo-1-[cis-4-[(3-methoxy-4-methylphenyl)carbamoyl]cyclohexyl]-2,3-dihydro-1H-1,3-benzodiazol-4-yl}pyrrolidin-3-yl)carbamate]",0.149 µM,8.83 µM,1.83 µM
"COc1cc(NC(=O)[C@H]2CC[C@@H](n3c(=O)[nH]c4c(N5CCC(N)C5)cccc43)CC2)ccc1C (stereo partly drawn) [Example 282, Cis-4-[4-(3-aminopyrrolidin-1-yl)-2-oxo-2,3-dihydro-1H-1,3-benzodiazol-1-yl]-N-(3-methoxy-4-methylphenyl)cyclohexane-1-carboxamide]",0.0101 µM,28.6 µM,27.5 µM
